These results are taken from patent US20030065039A1, “Biologically active 1,3-bis-aromatic-prop-2-en-1-ones, 1,3-bis-aromatic-propan-1-ones, and 1,3-bis-aromatic-prop-2-yn-1-ones” (Statens Serum Institute, priority 1997, published 2003).

One assay relates to IL-2. Kind of assay: Intracellular cytokine staining in stimulated human mononuclear cells. Format: cell-based. To be noted: 25 μg/ml compound. As for the experimental part:
(§1) Therefore, experiments were performed to examine the effect of Licochalcone A and SBC-35ma on secretion of TNF-α from the stimulated cells. These experiments included detection of the cytokines in the cell lysate by ELISA and staining of the intracellular cytokines by using monoclonal antibodies against these cytokines and cytokine receptors.
(§2) Table 3. Effect of Licochalcone A and SBC-35ma on the presence of intracellur cytokines in the human peripheral blood mononuclear cells stimulated either with a malarial exoantigen SPAG (diluted 1:12.5) or bacterial LPS (diluted 1:1000). The cells were preincubated with 25 μg/ml of each of the compounds for 2 hours and then incubated in the presence of antigens at 37° C. overnight. The cells were permeabilized and then fixed in paraformaldehyde Cytokine specific monoclonal antibodies were used for the detection of positive cells for each cytokine. Data are presented as percentages of positive cells for each cytokine.

The next assay has as its system IL-1ra. The description is as above. Format: cell-based. To be noted: 25 μg/ml compound. As for the experimental part: as §1, §2
In assay [1] the target is T1, Helicobacter pylori fumarate reductase (Helicobacter pylori, UniProt O06913).
T1 construct: Membrane associated proteins were solubilized from the pellet in 150 mM KCl, pH 7.0; endogenous in cells; host or cells: Helicobacter pylori 007 strain; KCl-solubilised fraction (or sonicate supernatant)
T1 sequence (O06913 1-714): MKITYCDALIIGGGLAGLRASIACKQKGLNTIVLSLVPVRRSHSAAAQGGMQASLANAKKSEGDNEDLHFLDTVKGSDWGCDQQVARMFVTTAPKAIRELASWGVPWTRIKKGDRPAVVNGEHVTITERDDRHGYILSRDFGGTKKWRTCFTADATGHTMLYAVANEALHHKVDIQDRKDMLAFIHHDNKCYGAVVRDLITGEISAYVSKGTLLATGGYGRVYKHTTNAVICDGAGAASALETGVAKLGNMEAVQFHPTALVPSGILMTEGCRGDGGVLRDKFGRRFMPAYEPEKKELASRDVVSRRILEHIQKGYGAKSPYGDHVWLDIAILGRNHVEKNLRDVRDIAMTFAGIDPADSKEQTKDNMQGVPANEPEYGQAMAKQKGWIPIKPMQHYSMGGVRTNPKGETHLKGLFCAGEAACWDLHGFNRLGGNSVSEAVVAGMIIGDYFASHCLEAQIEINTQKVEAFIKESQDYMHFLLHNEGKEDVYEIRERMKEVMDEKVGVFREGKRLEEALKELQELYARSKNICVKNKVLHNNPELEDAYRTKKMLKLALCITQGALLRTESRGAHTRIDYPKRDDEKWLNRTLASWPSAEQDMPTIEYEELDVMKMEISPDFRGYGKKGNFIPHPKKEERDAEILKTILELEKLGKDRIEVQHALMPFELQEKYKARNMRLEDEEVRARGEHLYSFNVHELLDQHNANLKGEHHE
T1 sequence (O06914 1-245 partner): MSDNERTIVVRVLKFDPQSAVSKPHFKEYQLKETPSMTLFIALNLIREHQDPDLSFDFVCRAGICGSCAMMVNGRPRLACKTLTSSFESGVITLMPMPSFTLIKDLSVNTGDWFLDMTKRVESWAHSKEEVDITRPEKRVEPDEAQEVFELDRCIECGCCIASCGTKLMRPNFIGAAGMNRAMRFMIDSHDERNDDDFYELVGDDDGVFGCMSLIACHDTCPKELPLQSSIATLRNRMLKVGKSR
T1 sequence (O06912 1-255 partner): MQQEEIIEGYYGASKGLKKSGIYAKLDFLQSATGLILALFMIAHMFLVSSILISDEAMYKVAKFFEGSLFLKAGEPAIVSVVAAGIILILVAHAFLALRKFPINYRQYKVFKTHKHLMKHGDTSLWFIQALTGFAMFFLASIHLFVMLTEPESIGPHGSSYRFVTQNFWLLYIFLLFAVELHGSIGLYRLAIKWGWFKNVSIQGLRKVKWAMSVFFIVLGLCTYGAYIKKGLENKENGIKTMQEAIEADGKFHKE
Format: biochemical. To be noted: Control 19.2 ± 2.5. As to the method: 1) Extraction of soluble FRD: Bacteria were harvested by centrifugation at 18,000 g for 10 min at 4° C., and were washed 2 times in an isotonic phosphate saline buffer (50 mM sodium phosphate, pH 7.2, 90 mM NaCl, 5 mM Kcl). Bacteria were lysed in 5 mM Tris-HCl, pH 7.4, for 15 minutes, and centrifuged 18,000 g for 10 minutes. Membrane associated proteins were solubilized from the pellet in 150 mM KCl, pH 7.0, in ice bath for 60 min, and then the supernatant was collected after centrifugation (18,000 g for 10 minutes) for the measurement of FRD activity.
2) Extraction of FRD by sonication: Bacteria were harvested by centrifugation at 18,000 g for 10 min at 4° C., were sonicated, and then the supernatant was collected after centrifugation (18,000 g for 10 minutes) for the measurement of FRD activity.
NADH-FRD activity was determined as the rate of NADH-oxidation upon addition of 1 mM fumarate in the KCl-solubilized fraction or sonicated fraction. The reaction was monitored spectrophotometrically at 340 nm (∈=6.2 mM^−1 cm^−1) using 100 μM NADH and usually 3 mg protein in both reference and sample cuvettes. The measurement was carried out in a Shimadzu UV-190 double-beam spectrophotometer. Protein concentrations were determined using a Bio-Rad protein assay (Bio-Rad Laboratories, 200 Alfred Nobel Dr. Hercules, Calif. 94547, USA).
KCl solubilised fraction of bacteria was incubated with different concentrations of various oxygenated chalcones at 28° C. and the remaining FRD activity was measured. The IC50 values were determined as the concentration at which 50% of the activity was inhibited.

Assay [2] concerns cytomegalovirus AD-169 strain. The assay can be described thus: Activity against cytomegalovirus in HEL cells (plaque formation). The assay is classed as cell-based. The conditions noted are these: virus plaque formation reduced by 50%, 100 PFU, values given as fractions. As for the experimental part:
(§3) IC50 values are determined by the virus plaque formation and/or the virus cytopathic assay using standard methods well-known in the art.

The subject of assay [3] is cytomegalovirus Davis strain. Described as above. To be noted: virus plaque formation reduced by 50%, 100 PFU, values given as fractions. The assay is classed as cell-based. As to the method: as §3
The subject of a further assay is IFN-γ. The assay can be described thus: IFN-γ producing human mononuclear cells (PMA+inomycin). To be noted: for % IFN-γ producing cells / inhibition at 12.5 µg/mL: 1b Experiment 2, PMA+inomycin, 12.5 μg/ml; for % IFN-γ producing cells: DMSO Control 16.4; for inhibition of IFN-γ production: concentration of 12.5 μg/ml; for inhibition at 12.5 µg/mL: Homo sapiens. Format: cell-based. As to the method:
Mitogens: LPS at a final conc. of 1 μg/ml for TNF-α and PMA+inomycin for IFN-γ.
Incubation condition: Cells and mitogen added at the same time and the compound solution added immediately after in polypropylene tubes and incubated at 37° C. in CO2 incubator overnight. The following day the cells and the supernatant were harvested for TNF-α determination.

Where [4] appears, read: compound 50 (unit not given), mean±SD, three experiments.

Molecules are shown by their SMILES. Where two headings read alike, the source gives them in different places.

On to `C=CC(C)(C)c1cc(/C=C/C(=O)c2ccc(O)cc2)c(OC)cc1O` [Licochalcone A], for which the “percentages of positive cells for IL-2” value is 3.6% in the assay with IL-2 (LPS 1:1000, LPS alone 2.0) and 5.2% in the assay on IL-2 (SPAG 1:12.5, SPAG alone 3.1). The “percentages of positive cells for IL-1ra” value is 7.6% with IL-1ra (LPS 1:1000, LPS alone 5.1) and 2.9% in the assay on IL-1ra (SPAG 1:12.5, SPAG alone 6.6). The FRD activity in assay [1] (compound 1 (unit not given)) is 14.5 ± 2.9 mu/mg of protein; in assay [1] (compound 5 (unit not given)), 6.8 ± 1.7 mu/mg of protein; in assay [1] (compound 10 (unit not given)), 2.5 ± 1.1 mu/mg of protein; in assay [1] (compound 25 (unit not given)) it was 0.9 ± 0.6 mu/mg of protein; in assay [1] (setting [4]) it was 0.0 mu/mg of protein. Moreover, the “Antiviral activity IC50, AD-169 strain, Assay 1” value in assay [2] was 1/15000. Besides, the “Antiviral activity IC50, Davis strain, Assay 1” value in assay [3] was 1/50000.

Regarding `COc1cc(/C=C/C(=O)c2ccc(C3CCCCC3)cc2)cc(OC)c1` [PH104, 3,5-dimethoxy-4′-cyclohexylchalcone], in the assay with IFN-γ, the “% IFN-γ producing cells” value was 17.0% and at 12.5 µg/mL the inhibition was 0%. Besides, the “inhibition of IFN-γ production” value with IFN-γ (1b Experiment 3) is recorded as “no inhibition”. Also, the “inhibition of IFN-γ production” value with IFN-γ (1b Experiment 4) was “no inhibition”.

With `COc1cc(/C=C/C(=O)c2ccc([N+](=O)[O-])cc2)cc(OC)c1` [PH105, 4′-nitro-3,5-dimethoxychalcone], the FRD activity is on record as 15.8 ± 2.0 mu/mg of protein in assay [1] (compound 1 (unit not given)); 8.5 ± 1.8 mu/mg of protein in assay [1] (compound 5 (unit not given)); 4.1 ± 1.5 mu/mg of protein in assay [1] (compound 10 (unit not given)); 1.7 ± 0.7 mu/mg of protein in assay [1] (compound 25 (unit not given)); 0.0 mu/mg of protein in assay [1] (setting [4]).

With `COc1cc(/C=C/C(=O)c2ccccc2F)cc(OC)c1` [PH135, 2′-fluoro-3,5-dimethoxychalcone], in the assay on IFN-γ, the “% IFN-γ producing cells” value is on record as 14.2% and the inhibition at 12.5 µg/mL was 14%. Also, the “inhibition of IFN-γ production” value with IFN-γ (1b Experiment 3) is reported as “no inhibition”. In the assay with IFN-γ (1b Experiment 4), the “inhibition of IFN-γ production” value is reported as “no inhibition”.

Consider `C=CCOc1ccc(C(=O)/C=C/c2cc(OC)cc(OC)c2)cc1` [SBC-35ma, 3,5-dimethoxy-4′-allyloxychalcone], for which the “percentages of positive cells for IL-2” value is 0% in the assay on IL-2 (LPS 1:1000, LPS alone 2.0) and 0% in the assay on IL-2 (SPAG 1:12.5, SPAG alone 3.1). For the same compound, the “percentages of positive cells for IL-1ra” value in the assay on IL-1ra (LPS 1:1000, LPS alone 5.1) was found to be 0.78%; with IL-1ra (SPAG 1:12.5, SPAG alone 6.6), 0.14%. Also, the “Antiviral activity IC50, AD-169 strain, Assay 1” value in assay [2] was <1/60. The “Antiviral activity IC50, Davis strain, Assay 1” value in assay [3] is on record as <1/60.

Broadly, the inhibition is the share of the control response that was lost under treatment. Low values mean little suppression, high ones strong suppression.
